Test results from patent US12201634B2, “Methods of treating depression using orexin-2 receptor antagonists” (Janssen Pharmaceutica NV, priority 2016, dated 2025).

Key:
[1] = test system: subjects diagnosed with MDD; assay: HDRS17 / HAM-D6 ratings, Group 2 adjunctive to antidepressant (Example 3); format: in vivo, human
Experimental: (§1) Specifically, Compound A was administered to subjects diagnosed with MDD (i) as a monotherapy and (ii) in combination with a known anti-depressant and the symptoms of depression of the subjects evaluated using the HDRS17 and HAM-D6 scale
(§2) Each subject in Group 2 also took an amount of antidepressant selected from duloxetine, citalopram, paroxetine, or sertraline and as prescribed by their attending physician. For the evaluation of symptoms of depression for both groups, assessments were independently performed at screening and on Day 11, i.e., one day after the study, using HDRS17 and HAM-D6 as described in Example 2. In Tables 11-12, # denotes the Cohen effect size, * denotes P<0.05 (statistically significant), and ** denotes P<0.01.

[2] = Plasma pharmacokinetics after single 20 mg oral dose of suspension or tablet formulation (Example 1); format: in vivo, Human
Experimental: This example was performed to determine the plasma pharmacokinetic (PK) and bioavailability of a solid dose formulation of [5(4,6-dimethyl-pyrimidin-2-yl)-hexahydro-pyrrolo[3,4-c]pyrrol-2-yl]-(2-fluoro-2-[1,2,3]triazol-2-yl-phenyl)-methanone (Compound A) after single dose tablet administration relative to a suspension formulation. Also addressed are the effect of a semi-fasted condition on the rate and extent of bioavailability of the solid dose formulation and tolerability of the solid and oral suspension formulations.
During each treatment period, blood samples were collected for PK measurements. Specifically, venous blood samples of 3 mL each were collected for determination of Compound plasma concentrations. The following plasma Compound A PK parameters were estimated using the actual times of blood sampling: • Cmax peak plasma concentration. • tmax time to reach the peak plasma concentration. • AUClast area under the plasma concentration-time curve from 0 to t hours post study drug dosing, calculated by trapezoidal summation (time t is the time of the last quantifiable concentration Clast). • AUC∞ AUClast extrapolated to infinity, calculated as AUClast+Clast/λz. • λz elimination rate constant, determined by linear regression of the terminal points of the ln-linear plasma concentration-time curve. • t1/2 terminal half-life, defined as 0.693/λz. • CL/F total clearance of drug after extravascular administration, uncorrected for absolute bioavailability, calculated as Dose/AUC∞. • Vd/F apparent volume of distribution after extravascular administration, uncorrected for absolute bioavailability.
Samples were prepared for testing using the following protocol: • (i) Plasma samples at room temperature were homogenized. • (ii) The samples were centrifuged for 5 minutes at about 2500×g and 20° C. • (iii) The plasma sample (50.0 μL) was pipetted into a 1.2 mL round well collection plate. • (iv) Stock Dilution Solvent (50.0 μL) was added to the blanks and the internal standard working solution was added to all other tube. […]

orexin-2 receptor = target: T1, orexin-2 receptor (Homo sapiens, UniProt O43614); assay: Orexin-2 receptor antagonism (statement); conditions: orally active
T1 sequence (O43614 1-444): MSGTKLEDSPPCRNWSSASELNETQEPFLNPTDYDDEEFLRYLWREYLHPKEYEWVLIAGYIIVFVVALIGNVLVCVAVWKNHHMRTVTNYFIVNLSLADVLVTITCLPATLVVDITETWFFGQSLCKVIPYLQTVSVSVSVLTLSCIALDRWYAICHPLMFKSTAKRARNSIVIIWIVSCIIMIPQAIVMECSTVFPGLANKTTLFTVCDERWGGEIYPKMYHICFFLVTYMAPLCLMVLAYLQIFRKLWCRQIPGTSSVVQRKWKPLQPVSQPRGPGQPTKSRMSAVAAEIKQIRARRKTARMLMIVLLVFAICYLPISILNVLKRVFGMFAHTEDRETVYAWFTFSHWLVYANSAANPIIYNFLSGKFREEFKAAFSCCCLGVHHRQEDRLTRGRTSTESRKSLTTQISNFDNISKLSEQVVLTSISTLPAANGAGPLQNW

[3] = test system: subjects with a diagnosis of MDD; assay: HDRS17 / HAM-D6 depression ratings, diphenhydramine and placebo-controlled study (Example 2); format: in vivo, human; conditions: for Mean HAM-D6, change from baseline / mean HDRS17 anxiety/somatization factor score, change from baseline / Mean Adjusted HDRS17 (sleep items removed), change from baseline / Total HDRS17 mean score, change from baseline: Day 11; for Mean Adjusted HDRS17 (sleep items removed), change from baseline / Total HDRS17 mean score, change from baseline: q.d. in the evening
Source text: (§3) Men and women with a diagnosis of MDD between the ages of 18 and 64, inclusive, were enrolled.
(§4) (once daily) in the evening over 10 days for women of child bearing potential (WOCBP) or 4 weeks for males and women of non-child bearing potential (WONCBP). […] Males and WONCBP took 1 capsule every evening just before bedtime from Day 1 to Day 28. WOCBP took 1 capsule every evening just before bedtime from Day 1 to Day 10. There were 2 follow up visits occurring at 3 and 14 days.
(§5) For the evaluation of symptoms of depression, assessments were done at screening and during the study. Specifically, symptoms of depression were performed using the Mini International Neuropsychiatric Interview (MINI) 6.0 interview, or Hamilton rating scale for Depression-17 (HDRS17). Also, polysomnography (PSG) was performed to quantify sleep stages including latency to persistent sleep (LSP) and total sleep time (TST). Thereafter, symptoms of depression were taking on days 11 and 29 during treatment and days 3 and 14 following treatment. PSG was recorded overnight after the first and tenth dose administration of study medication.
A HDRS17 total score was calculated by summing the 17 item scores taken during the study. A HDRS17 total score ranges from 0 to 52, with higher scores indicating greater severity of depression. In order to correct for a possible effect of study medication on sleep, sleep-related items were removed from the HDRS17 to calculate a (sleep item)-adjusted HDRS. Accordingly, an adjusted HDRS17 total score was calculated by summing the item scores excluding the 3 insomnia questions (4-Insomnia Early, 5-Insomnia Middle and 6-Insomnia Late). A HDRS17 adjusted total score ranges from 0 to 46. A 6-item subscale from the HDRS17 (HAM-D6) was analyzed and provided information to core depressive symptoms and is sensitive to treatment response. The six items included depressed mood, guilt feelings, work and interests, psychomotor retardation, psychic anxiety, and general somatics (tiredness and pains).
The HAM-D6 score was calculated by summing the 6 items scores, and ranges from 0 to 22. Higher scores indicate greater severity of core symptoms.

[4] = test system: subjects with a diagnosis of MDD; assay: Polysomnography (TST, LPS) in MDD study (Example 2); format: in vivo, human; conditions: for LPS compared to placebo / TST compared to placebo: overnight on Day 1/2
Source text: as §3, §4, §5
The effects of study medication on polysomnography (PSG)-derived parameters was evaluated overnight on Days 1/2 and 10/11. In addition, PSG was recorded up to and following a forced wake overnight on Day 5/6. Two screening PSG recordings were made and baseline values were calculated as the average values recorded at Screening 1 and 2.
TST is defined as total minutes spent in rapid eye movement (REM) and non-REM sleep.
LPS is defined as the elapsed time (in minutes) from lights out to 10 minutes of continuous sleep.

[5] = test system: subjects diagnosed with MDD; assay: HDRS17 / HAM-D6 ratings, Group 1 monotherapy (Example 3); format: in vivo, human
Experimental: as §1, §2

healthy subjects = assay: Daytime administration in healthy subjects (statement); format: in vivo, human
[6] = Posology: plasma pharmacokinetics after oral 20 mg and repeated nighttime administration (Example 2); format: in vivo, human
Experimental: Blood and saliva were collected for the assessment of biomarkers, among others. Venous blood samples (3 mL each) were collected in fasting condition between 8:00 and 10:00 am for the determination of [5(4,6-dimethyl-pyrimidin-2-yl)-hexahydro-pyrrolo[3,4-c]pyrrol-2-yl]-(2-fluoro-2-[1,2,3]triazol-2-yl-phenyl)-methanone plasma concentrations and biomarkers related to immune system activity, Hypothalamus pituitary adrenal (HPA) axis activation, neurotropic factors and metabolic factors were measured. Pharmacokinetic (PK) blood samples also were collected. Plasma samples were analyzed to determine concentrations of Compound A using LC-MS/MS. Saliva was collected for the measurement of concentrations of cortisol. Saliva concentrations of cortisol were added as a biomarker.
as §4
The magnitude of the effect of Compound A on LPS and TST is directly related to level of insomnia at baseline. See, FIGS. 12-15.

[7] = test system: subjects with insomnia disorder (ID); assay: Nighttime administration in subjects with insomnia disorder (statement); format: in vivo, human
[8] = Group 2 (with antidepressant), Day 11

Molecule: [5(4,6-dimethyl-pyrimidin-2-yl)-hexahydro-pyrrolo[3,4-c]pyrrol-2-yl]-(2-fluoro-2-[1,2,3]triazol-2-yl-phenyl)-methanone [Compound A]
- Adjusted HDRS Effect Size Compound A vs Placebo (Cohen effect size) [1, 8]: −1.06
- Adjusted HDRS mean score (SD), change from baseline [1, 8]: −5.5 (1.29)
- Anxiety-Somatization Factor Effect Size Compound A vs Placebo (Cohen effect size) [1, 8]: −0.76
- Anxiety-Somatization Factor mean score (SD), change from baseline [1, 8]: −1.8 (0.50)
- HAM-D6 Effect Size Compound A vs Placebo (Cohen effect size) [1, 8]: −1.49
- HAM-D6 mean score (SD), change from baseline [1, 8]: −4.8 (1.50)
- HDRS17 Effect Size Compound A vs Placebo (Cohen effect size) [1, 8]: −0.37
- HDRS17 mean score (SD), change from baseline [1, 8]: −7.0 (3.37)
- antidepressant efficacy as adjunctive therapy ([1]; antidepressant drug-treated subjects with MDD): has antidepressant efficacy
- mean t1/2 ([2]; 20 mg oral suspension, fasted): ~2 h
- mean t1/2 ([2]; 20 mg tablet, fasting condition): ~5 h
- mean t1/2 ([2]; 20 mg tablet, semi-fasted): ~2 h
- activity at orexin-2 receptor (orexin-2 receptor): selective antagonist
- antidepressant effect compared to placebo and diphenhydramine ([3]; 20 mg q.d. in the evening): larger and clinically relevant
- Mean HAM-D6, change from baseline [3]: −3.8
- mean HDRS17 anxiety/somatization factor score, change from baseline [3]: −1.6
- Mean Adjusted HDRS17 (sleep items removed), change from baseline [3]: −4.5
- Total HDRS17 mean score, change from baseline [3]: −5.5
- antidepressant effect sustained after treatment discontinuation ([3]; after treatment discontinuation): at least 14 days
- Latency to Persistent Sleep (LPS), change from baseline ([4]; Day 1/2): 8.7 min
- Total Sleep Time (TST), change from baseline ([4]; Day 1/2): 30.9 min
- Latency to Persistent Sleep (LPS), change from baseline ([4]; Day 10/11): 9.2 min
- Total Sleep Time (TST), change from baseline ([4]; Day 10/11): 26.56 min
- LPS compared to placebo [4]: modestly reduced LPS
- TST compared to placebo [4]: increased TST
- Adjusted HDRS Effect Size Compound A vs Placebo (Cohen effect size) ([5]; Group 1, Day 11): −0.93
- Adjusted HDRS mean score (SD), change from baseline ([5]; Group 1, Day 11): −4.3 (2.97)*
- Anxiety-Somatization Factor Effect Size Compound A vs Placebo (Cohen effect size) ([5]; Group 1, Day 11): −0.51
- Anxiety-Somatization Factor mean score (SD), change from baseline ([5]; Group 1, Day 11): −1.6 (1.65)
- HAM-D6 Effect Size Compound A vs Placebo (Cohen effect size) ([5]; Group 1, Day 11): −1.22
- HAM-D6 mean score (SD), change from baseline ([5]; Group 1, Day 11): −3.6 (2.33)**
- HDRS17 Effect Size Compound A vs Placebo (Cohen effect size) ([5]; Group 1, Day 11): −0.64
- HDRS17 mean score (SD), change from baseline ([5]; Group 1, Day 11): −5.1 (3.97)
- antidepressant efficacy as monotherapy ([5]; untreated subjects with MDD): has antidepressant efficacy
- somnolence (healthy subjects): induced somnolence
- accumulation on repeated daily dosing ([6]; nighttime administration, 10 days daily): did not result in accumulation
- half-life ([6]; oral 20 mg): 2 to 3 h
- time to maximal plasma concentrations (Tmax) ([6]; oral 20 mg): < 1 h
- latency to persistent sleep (LPS) [7]: reduced
- total sleep time (TST) [7]: prolongs

Molecule: CN(C)CCOC(c1ccccc1)c1ccccc1 [Diphenhydramine, diphenhydramine, reference compound]
- Adjusted HDRS mean score (SD), change from baseline [1, 8]: −3.5 (0.71)
- Anxiety-Somatization Factor mean score (SD), change from baseline [1, 8]: −1.5 (0.71)
- HAM-D6 mean score (SD), change from baseline [1, 8]: −2.0 (1.41)
- HDRS17 mean score (SD), change from baseline [1, 8]: −3.5 (0.71)
- Mean HAM-D6, change from baseline [3]: −1.8
- mean HDRS17 anxiety/somatization factor score, change from baseline [3]: −0.9
- Mean Adjusted HDRS17 (sleep items removed), change from baseline [3]: −2.3
- Total HDRS17 mean score, change from baseline [3]: −4.1
- Latency to Persistent Sleep (LPS), change from baseline ([4]; Day 1/2): 6.7 min
- Total Sleep Time (TST), change from baseline ([4]; Day 1/2): 28.3 min
- Latency to Persistent Sleep (LPS), change from baseline ([4]; Day 10/11): 0.3 min
- Total Sleep Time (TST), change from baseline ([4]; Day 10/11): 33.92 min
- LPS compared to placebo [4]: modestly reduced LPS
- TST compared to placebo [4]: increased TST
- Adjusted HDRS mean score (SD), change from baseline ([5]; Group 1, Day 11): −2.1 (3.02)
- Anxiety-Somatization Factor mean score (SD), change from baseline ([5]; Group 1, Day 11): −0.8 (1.17)
- HAM-D6 mean score (SD), change from baseline ([5]; Group 1, Day 11): −1.7 (2.15)
- HDRS17 mean score (SD), change from baseline ([5]; Group 1, Day 11): −4.2 (4.00)
